Experimental data as given in patent US12564589B2, “Methods for treating cancer, reducing side effects of cancer treatment, and preventing the recurrence of cancer” (Florida State University Research Foundation, Inc., priority 2024, dated 2026).

Assays:
[1] = test system: Budding yeast strains carrying H3G34R mutant; assay: Yeast viability by colony enumeration after genotoxic agents; format: cell-based; conditions: 90 minutes treatment
Procedure: FIGS. 8A-8G show deficiency of H3.3 in cells from multiple species results in accumulation of genomic instability and endogenous DNA damage, as well as hypersensitivity to DNA damaging agents. (FIG. 8A) Enhanced rate of micronuclei formation in H3.3KD cells. Micronuclei score was determined as described previously from 1000 LUC and H3.3KD cells. The difference between LUC and H3.3 was trending towards significance (p=0.12). (FIG. 8B) Increased incidence of lagging chromosomes during mitosis in H3.3KD cells. Quantitation of lagging chromosomes from 100 anaphases in LUC and H3.3KD cells is shown. (FIG. 8C) Flies deficient in H3.3 accumulate endogenous DNA damage. Western blot showing the levels of γH2A.v (the fly homolog of mammalian γH2A.X) in adult flies of the indicated genotypes: wild-type (WT; Oregon-R), heterozygous (het, with just one H3.3 allele) and rescue (res, which completely lacks H3.3, but its sterility is rescued by an extra copy of H3.2 driven by the H3.3B promoter). A sample from flies treated with 10 Gy IR is included as a positive control for γH2A.v signal. […] 100 third instar Drosophila larvae from WT and heterozygous (H3.3 Het) genotype carrying just one out of four alleles of H3.3 were exposed to either IR or ultra violet (UV) light and their development into adult flies was monitored for over two weeks. […] Viable flies remaining were scored daily for a week. […]

H3.3KD cells = assay: Viability by flow cytometry (Live/Dead staining) after DNA damaging agents; format: cell-based, human
Procedure: FIGS. 1A-1G show replacement histone variant H3.3 is rapidly recruited to DNA damage sites and cells deficient in H3.3 accumulate endogenous damage, while also being hypersensitive to DNA damaging agents. FIG. 1A: Histone variant H3.3 is rapidly recruited to sites of laser induced DNA damage in living cells. HCT116 human colon carcinoma cells were transiently co-transfected with expression constructs for H3.3-mEmerald and RFP-PCNA. […] Percent recruitment was calculated by dividing the number of cells recruiting H3.3 by the number of cells recruiting PCNA in the same cells. n=number of cells analyzed. […] The percentage knockdown for each clone shown at the bottom of the lanes was quantitated by measuring fluorescence intensity of the H3.3 band relative to the signal from the H4 band on a Li-Cor Odyssey imager. […] The presence of endogenous damage in H3.3KD and control LUC cells was determined by Western blotting of whole cell extracts using the indicated antibodies. […] 48 hours after MMS treatment, the viability of the cells was scored by flow cytometry using the violet fluorescent Live/Dead cell staining kit (Invitrogen) following the manufacturer's instructions. […] Significant differences between treatments are indicated by p values determined using a t-test. […]

Compound	sensitivity of H3G34R yeast compared to wild-type [1]	sensitivity of H3.3 KD cells compared to control LUC cells (H3.3KD cells; 0.0175% MMS for 2 hours, viability 48 hours after)	sensitivity of H3.3 KD cells compared to control LUC cells (H3.3KD cells; 0.5 mM Mimo)
COS(C)(=O)=O [MMS, methyl methane sulfonate]	hypersensitive	very sensitive	
NC(Cn1ccc(=O)c(O)c1)C(=O)O (stereo not drawn) [Mimosine]			very sensitive
